Source: patent US12371664B2, “Medium for direct differentiation of pluripotent stem cell-derived mesenchymal stem cell, method for preparing mesenchymal stem cell by using same, and mesenchymal stem cell prepared thereby” (CHA BIOTECH CO., LTD., priority 2018, dated 2025)

Columns and labels:
[1] = test system: human embryonic stem cells; test: Analysis of cytomorphological features (spindle shape) under a phase-contrast microscope; type: cell-based; conditions: FIG. 10; 10 μM RS1, 10 μM Y27632, 1 μM SB431542 as applicable
Text: For analysis of cytomorphological features of mesenchymal stem cells obtained in Example 1 and Comparative Example 1, a mesenchymal stem cell-specific proliferation pattern (spindle shape) was identified under a phase-contrast microscope (Nikon TE-2000), and the results are shown in FIGS. 2 and 3, respectively.
For analysis of cytomorphological difference by treatment with the DNA repair agent or the ROCK inhibitor alone on the basis of period, morphologies of cells of Example 1 and Comparative Examples 2 and 3 were analyzed in the same manner as in Experimental Example 1. As a control, cells treated with the TGF-β inhibitor SB431542 alone without being treated with both the DNA repair agent and the ROCK inhibitor were used, and the results are shown in FIG. 10.

[2] = test system: transcription factor required for endodermal differentiation / mesodermal differentiation; conditions: background art; cited from earlier work

NC(=O)c1ccc(-c2nc(-c3ccc4c(c3)OCO4)c(-c3ccccn3)[nH]2)cc1.O [SB431542, 4-[4-(1,3-benzodioxol-5-yl)-5-(2-pyridinyl)-1H-imidazol-2-yl]-benzamide hydrate]
cytomorphological observation (mesenchymal stem cell proliferation pattern of the spindle shape) [1]: most of the cells disappeared on the 30th day and uniformity deteriorated | concentration having effects on inhibiting the transcription factor for endodermal differentiation and increasing that for mesodermal differentiation [2]: ≥ 1 µM
